# Experimental data reported in PubChem BioAssay AID1963868 (Molecular Pharmacology Branch, DTP, NCI, 2024).
# pIC50: −log10 of the molar value.
# System: KRAS PDC tumor spheroids (HUVEC+MSC), viability
# Test: Anticancer human tumor 254851-301-R-J1-PDC patient-derived colon carcinoma cell line growth inhibition [KRAS2]
# Conditions: for viability, T/C: stronger effect = lower value
# Outline: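 Combination screen of spheroid viability in tumor-cell co-cultures with endothelial (HUVEC) and mesenchymal stem cell stroma. Each agent was tested in half-log dilutions, topping at clinical Cmax or at 10 microM without a known Cmax.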
# [1] = curve of first compound, second compound 0.1 µM
# [2] = curve of first compound, second compound 0.316 µM
# [3] = curve of first compound, second compound 1 µM
# [4] = curve of first compound, second compound 3.16 µM
# [5] = curve of first compound, second compound 10 µM
# [6] = second compound 0.1 µM, first compound 0.01 µM
# [7] = second compound 0.1 µM, first compound 0.0316 µM
# [8] = second compound 0.1 µM, first compound 0.1 µM
# [9] = second compound 0.1 µM, first compound 0.316 µM
# [10] = second compound 0.1 µM, first compound 1 µM
# [11] = second compound 0.1 µM, first compound 3.16 µM
# [12] = second compound 0.316 µM, first compound 0.01 µM
# [13] = second compound 0.316 µM, first compound 0.0316 µM
# [14] = second compound 0.316 µM, first compound 0.1 µM
# [15] = second compound 0.316 µM, first compound 0.316 µM
# [16] = second compound 0.316 µM, first compound 1 µM
# [17] = second compound 0.316 µM, first compound 3.16 µM
# [18] = second compound 1 µM, first compound 0.01 µM
# [19] = second compound 1 µM, first compound 0.0316 µM
# [20] = second compound 1 µM, first compound 0.1 µM
# [21] = second compound 1 µM, first compound 0.316 µM
# [22] = second compound 1 µM, first compound 1 µM
# [23] = second compound 1 µM, first compound 3.16 µM
# [24] = second compound 3.16 µM, first compound 0.01 µM
# [25] = second compound 3.16 µM, first compound 0.0316 µM
# [26] = second compound 3.16 µM, first compound 0.1 µM
# [27] = second compound 3.16 µM, first compound 0.316 µM
# [28] = second compound 3.16 µM, first compound 1 µM
# [29] = second compound 3.16 µM, first compound 3.16 µM
# [30] = second compound 10 µM, first compound 0.01 µM
# [31] = second compound 10 µM, first compound 0.0316 µM
# [32] = second compound 10 µM, first compound 0.1 µM
# [33] = second compound 10 µM, first compound 0.316 µM
# [34] = second compound 10 µM, first compound 1 µM
# [35] = second compound 10 µM, first compound 3.16 µM
# [36] = second compound 0.1 µM, first compound 10 µM
# [37] = second compound 0.316 µM, first compound 10 µM
# [38] = second compound 1 µM, first compound 10 µM
# [39] = second compound 3.16 µM, first compound 10 µM
# [40] = second compound 10 µM, first compound 10 µM
# 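Further: spheroids exposed to compounds for seven days before readout.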
# 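Wherever viability, T/C is given: 100% = DMSO vehicle control luminescence of the spheroids.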
structure (smiles),measurement,setting,value
CC1COCCN1c1cc(-c2ccnn2C)c2ccnc(-c3ccn[nH]3)c2n1 (stereo not given) + COc1cc2nc(C)nc(NC(C)c3cc(N)cc(C(F)(F)F)c3)c2cc1OC1CCOC1,pIC50,[1],7.43
same,pIC50,[2],6.37
same,pIC50,[3],6.46
same,pIC50,[4],6.94
same,pIC50,[5],6.92
same,"viability, T/C",[6],70.2%
same,"viability, T/C",[7],46.4%
same,"viability, T/C",[8],32.6%
same,"viability, T/C",[9],42.3%
same,"viability, T/C",[10],36.8%
same,"viability, T/C",[11],14.2%
same,"viability, T/C",[12],99.8%
same,"viability, T/C",[13],112%
same,"viability, T/C",[14],81%
same,"viability, T/C",[15],58.5%
same,"viability, T/C",[16],31.8%
same,"viability, T/C",[17],25%
same,"viability, T/C",[18],103%
same,"viability, T/C",[19],104%
same,"viability, T/C",[20],77%
same,"viability, T/C",[21],50.5%
same,"viability, T/C",[22],38%
same,"viability, T/C",[23],24%
same,"viability, T/C",[24],80%
same,"viability, T/C",[25],64.3%
same,"viability, T/C",[26],56.3%
same,"viability, T/C",[27],29.3%
same,"viability, T/C",[28],17.9%
same,"viability, T/C",[29],25.7%
same,"viability, T/C",[30],99.8%
same,"viability, T/C",[31],92%
same,"viability, T/C",[32],51.3%
same,"viability, T/C",[33],33.5%
same,"viability, T/C",[34],21.8%
same,"viability, T/C",[35],20.9%
Cn1nccc1Nc1nccc(-c2cc3c(s2)C(C)(C)N(CCN2CCOCC2)C3=O)n1 + CC1OCC2(CCN(c3cnc(Sc4ccnc(N)c4Cl)c(N)n3)CC2)C1N,pIC50,[1],5.76
same,pIC50,[2],5.74
same,pIC50,[3],5.89
same,pIC50,[4],6.33
same,pIC50,[5],6.37
same,"viability, T/C",[7],97.6%
same,"viability, T/C",[8],98.1%
same,"viability, T/C",[9],100%
same,"viability, T/C",[10],86.9%
same,"viability, T/C",[11],8.68%
same,"viability, T/C",[36],4.09%
same,"viability, T/C",[13],83.8%
same,"viability, T/C",[14],86.8%
same,"viability, T/C",[15],85.3%
same,"viability, T/C",[16],69.8%
same,"viability, T/C",[17],31.1%
same,"viability, T/C",[37],4.06%
same,"viability, T/C",[19],77.4%
same,"viability, T/C",[20],83.7%
same,"viability, T/C",[21],81.8%
same,"viability, T/C",[22],61.1%
same,"viability, T/C",[23],11.1%
same,"viability, T/C",[38],3.68%
same,"viability, T/C",[25],68%
same,"viability, T/C",[26],77.5%
same,"viability, T/C",[27],75.8%
same,"viability, T/C",[28],4.42%
same,"viability, T/C",[29],2.57%
same,"viability, T/C",[39],1.97%
same,"viability, T/C",[31],64%
same,"viability, T/C",[32],79.5%
same,"viability, T/C",[33],63%
same,"viability, T/C",[34],10.3%
same,"viability, T/C",[35],3.18%
same,"viability, T/C",[40],2.52%
COc1cc2nccc(Oc3ccc(NC(=O)C4(C(=O)Nc5ccc(F)cc5)CC4)cc3)c2cc1OC,"viability, T/C",compound 0.0316 µM,103% [middle of 5 runs]
same,"viability, T/C",compound 0.1 µM,107% [middle of 5 runs]
same,"viability, T/C",compound 0.316 µM,105% [middle of 5 runs]
same,"viability, T/C",compound 1 µM,106% [middle of 5 runs]
same,pIC50,curve of compound,< 5.00
CCNC(=O)CC1N=C(c2ccc(Cl)cc2)c2cc(OC)ccc2-n2c(C)nnc21 (stereo not given) + C=CC(=O)N1CCN(c2nc(OCC3CCCN3C)nc3c2CCN(c2cccc4cccc(C)c24)C3)CC1CC#N,pIC50,"curve of first compound, second compound 0.0316 µM",< 5.00
same,pIC50,[1],< 5.00
same,pIC50,[2],< 5.00
same,pIC50,[3],5.44
same,pIC50,[4],> 7.50
same,"viability, T/C","second compound 0.0316 µM, first compound 0.0316 µM",98.7%
same,"viability, T/C","second compound 0.0316 µM, first compound 0.1 µM",90.4%
same,"viability, T/C","second compound 0.0316 µM, first compound 0.316 µM",88.5%
same,"viability, T/C","second compound 0.0316 µM, first compound 1 µM",92.2%
same,"viability, T/C","second compound 0.0316 µM, first compound 3.16 µM",80.6%
same,"viability, T/C","second compound 0.0316 µM, first compound 10 µM",66.9%
same,"viability, T/C",[7],102%
same,"viability, T/C",[8],87.8%
same,"viability, T/C",[9],94.6%
same,"viability, T/C",[10],78.9%
same,"viability, T/C",[11],73.5%
same,"viability, T/C",[36],68.9%
same,"viability, T/C",[13],105%
same,"viability, T/C",[14],92.9%
same,"viability, T/C",[15],94.7%
same,"viability, T/C",[16],72.6%
same,"viability, T/C",[17],68%
same,"viability, T/C",[37],73.4%
same,"viability, T/C",[19],66.2%
same,"viability, T/C",[20],66.5%
same,"viability, T/C",[21],61.2%
same,"viability, T/C",[22],52.9%
same,"viability, T/C",[23],48.9%
same,"viability, T/C",[38],47.6%
same,"viability, T/C",[25],46.9%
same,"viability, T/C",[26],53.7%
same,"viability, T/C",[27],46.1%
same,"viability, T/C",[28],43.5%
same,"viability, T/C",[29],29.9%
same,"viability, T/C",[39],23.3%
CC(=O)Nc1cccc(-n2c(=O)n(C3CC3)c(=O)c3c(Nc4ccc(I)cc4F)n(C)c(=O)c(C)c32)c1 + COc1cc2nc(C)nc(NC(C)c3cc(N)cc(C(F)(F)F)c3)c2cc1OC1CCOC1,pIC50,[1],8.41
same,pIC50,[2],8.39
same,pIC50,[3],8.56
same,pIC50,[4],8.66
same,pIC50,[5],9.18
same,"viability, T/C","second compound 0.1 µM, first compound 0.0001 µM",105%
same,"viability, T/C","second compound 0.1 µM, first compound 0.000316 µM",97.8%
same,"viability, T/C","second compound 0.1 µM, first compound 0.001 µM",90.6%
same,"viability, T/C","second compound 0.1 µM, first compound 0.00316 µM",60.4%
same,"viability, T/C",[6],9.1%
same,"viability, T/C",[7],2.7%
same,"viability, T/C","second compound 0.316 µM, first compound 0.0001 µM",108%
same,"viability, T/C","second compound 0.316 µM, first compound 0.000316 µM",99%
same,"viability, T/C","second compound 0.316 µM, first compound 0.001 µM",94%
same,"viability, T/C","second compound 0.316 µM, first compound 0.00316 µM",62.7%
same,"viability, T/C",[12],6.64%
same,"viability, T/C",[13],2.56%
same,"viability, T/C","second compound 1 µM, first compound 0.0001 µM",111%
same,"viability, T/C","second compound 1 µM, first compound 0.000316 µM",88.2%
same,"viability, T/C","second compound 1 µM, first compound 0.001 µM",89.9%
same,"viability, T/C","second compound 1 µM, first compound 0.00316 µM",45.8%
same,"viability, T/C",[18],5.69%
same,"viability, T/C",[19],2.26%
same,"viability, T/C","second compound 3.16 µM, first compound 0.0001 µM",100%
same,"viability, T/C","second compound 3.16 µM, first compound 0.000316 µM",97.7%
same,"viability, T/C","second compound 3.16 µM, first compound 0.001 µM",85.6%
same,"viability, T/C","second compound 3.16 µM, first compound 0.00316 µM",33.4%
same,"viability, T/C",[24],4.02%
same,"viability, T/C",[25],2.15%
same,"viability, T/C","second compound 10 µM, first compound 0.0001 µM",84.8%
same,"viability, T/C","second compound 10 µM, first compound 0.000316 µM",72.5%
same,"viability, T/C","second compound 10 µM, first compound 0.001 µM",38%
same,"viability, T/C","second compound 10 µM, first compound 0.00316 µM",3.27%
same,"viability, T/C",[30],2.32%
same,"viability, T/C",[31],1.62%
COc1cc(Nc2ncc3c(n2)-c2ccc(Cl)cc2C(c2c(F)cccc2OC)=NC3)ccc1C(=O)O + COc1cc2nc(C)nc(NC(C)c3cc(N)cc(C(F)(F)F)c3)c2cc1OC1CCOC1,pIC50,[1],7.05
same,pIC50,[2],7.07
same,pIC50,[3],7.09
same,pIC50,[4],7.11
same,pIC50,[5],7.32
same,"viability, T/C",[7],77.7%
same,"viability, T/C",[8],42%
same,"viability, T/C",[9],31.5%
same,"viability, T/C",[10],25.1%
same,"viability, T/C",[11],14%
same,"viability, T/C",[36],9.19%
same,"viability, T/C",[13],83.9%
same,"viability, T/C",[14],39.8%
same,"viability, T/C",[15],30.7%
same,"viability, T/C",[16],24.1%
same,"viability, T/C",[17],17%
same,"viability, T/C",[37],8.65%
same,"viability, T/C",[19],77.4%
same,"viability, T/C",[20],39.1%
same,"viability, T/C",[21],30.1%
same,"viability, T/C",[22],24.6%
same,"viability, T/C",[23],18.5%
same,"viability, T/C",[38],8.42%
same,"viability, T/C",[25],74.5%
same,"viability, T/C",[26],38.8%
same,"viability, T/C",[27],30.2%
same,"viability, T/C",[28],25.8%
same,"viability, T/C",[29],20.3%
same,"viability, T/C",[39],10.9%
same,"viability, T/C",[31],58.6%
same,"viability, T/C",[32],34.1%
same,"viability, T/C",[33],28.9%
same,"viability, T/C",[34],25%
same,"viability, T/C",[35],22.4%
same,"viability, T/C",[40],16.4%
